The record followed here is patent US6762181B1, “Aminomethylpyrrolidine derivatives having aromatic substituents” (Daiichi Pharmaceutical Co., Ltd., priority 1999, dated 2004).

What all share (test): Antibacterial activity (MIC), Japan Society of Chemotherapy standard method
What all share (assay type): cell-based

In one assay the test system is S. aureus FDA 209P. Here is the method: (§1) Antibacterial activities of the compounds of the invention were measured in accordance with the standard method specified by the Japan Society of Chemotherapy, with the results shown in the following table as MIC values (μg/ml). In this connection, MIC values of levofloxacin (LVFX), ciprofloxacin (CPFX) and 5-amino-7-[3-(R)-[1-(S)-aminoethyl]pyrrolidin-1-yl]-6-fluoro-1-[2-(S)-fluoro-1-(R)-cyclopropyl]-8-methyl-1,4-dihydro-4-oxoquinoline-3-carboxylic acid (control drug 1) described in WO 9623782 are also shown for the sake of comparison with the MIC values of the compounds of the invention.

A further assay has as its system Str. pyrogenes G-36. On the procedure: as §1
A further assay relates to Pr. Vulgaris O8601. On the procedure: as §1
In another assay the test system is X. maltophilia IID 1275. On the procedure:
as §1

The next assay has as its system S. epidermidis 56500. Here is the method: as §1
Another assay concerns E. coli NIHJ. On the procedure:
as §1

The next assay has as its system S. flexneri 2A 5503. Here is the method: as §1
Another assay concerns Ps. aeruginosa 32104. Here is the method: as §1
The next assay has as its system E. faecalis ATCC 19433. Here is the method: as §1
The next assay concerns Ps. aeruginosa 32121. Here is the method:
as §1

In another assay the test system is Str. pneumoniae J24. On the procedure: as §1
For the next assay, the system named is Ser. marcescens 10100. On the procedure: as §1
For a further assay, the system named is S. aureus 870307. Here is the method: as §1
A further assay deals with K. pneumoniae TYPE 1. On the procedure:
as §1

Where [1] appears, read: Escherichia coli, read-out: MIC.
[2] abbreviates: Shigella flexneri, 2A5503, S. flexneri 2A 5503, read-out: MIC.

Values after ≈ are worked out from the molar mass of the structure shown. Read-outs that look alike come from different tables or passages of the source.

With `C[C@H]1COc2c(N3CC[C@@H](C(N)c4ccccc4)C3)c(F)cc3c(=O)c(C(=O)O)cn1c23` (stereo partly drawn) [Example 4, 10-[3-(R)-(1-Amino-1-Phenylmethyl)-1-Pyrrolidinyl]-9-Fluoro-2,3-Dihydro-3-(S)-Methyl-7-Oxo-7H-Pyrido [1,2,3,-de] [1,4] Benzoxazine-6-Carboxylic Acid], the MIC (as a rule, the smallest concentration in the dilution series that meets the test's criterion for growth inhibition) was “≦0.003 μg/ml” against S. aureus FDA 209P; “≦0.003 μg/ml” in the assay on Str. pyrogenes G-36; 0.013 µg/mL (≈ 0.0297 µM) against Pr. Vulgaris O8601; 0.05 µg/mL (≈ 0.114 µM) against X. maltophilia IID 1275 (X. maltophilia IID 1275); “≦0.003 μg/ml” against S. epidermidis 56500; “≦0.003 μg/ml” against E. coli NIHJ. For the same molecule, the MIC result with S. flexneri 2A 5503 (S. flexneri 2A 5503) is “≦0.003 μg/ml”; in the assay with Ps. aeruginosa 32104 (Ps. aeruginosa 32104), 0.1 µg/mL (≈ 0.229 µM); in the assay on E. faecalis ATCC 19433 (E. faecalis ATCC 19433), 0.006 µg/mL (≈ 0.0137 µM); in the assay on Ps. aeruginosa 32121 (Ps. aeruginosa 32121), 0.05 µg/mL (≈ 0.114 µM); against Str. pneumoniae J24 (Str. pneumoniae J24) it was “≦0.003 μg/ml”; in the assay on Ser. marcescens 10100 (Ser. marcescens 10100), 0.025 µg/mL (≈ 0.0571 µM). In addition, the MIC result against S. aureus 870307 (S. aureus 870307) was “≦0.003 μg/ml”; in the assay on K. pneumoniae TYPE 1 (K. pneumoniae TYPE 1), 0.025 µg/mL (≈ 0.0571 µM).
In the case of `Nc1c(F)c(N2CC[C@@H](C(N)c3cccnc3)C2)c(F)c2c1c(=O)c(C(=O)O)cn2[C@@H]1C[C@@H]1F` (stereo partly drawn) [Example 19, 5-Amino-7-(3-(R)-[1-amino-1-(3-pyridyl)methyl]-1-pyrrolidinyl]-6,8-difluoro-1-[(1R, 2S)-2-fluorocyclopropyl]-1,4-dihydro-4-oxoquinoline-3-carboxylic acid], the MIC in the assay with S. aureus FDA 209P (Staphylococcus aureus, FDA209P, read-out: MIC) was no more than 0.003 µg/mL; in the assay with Str. pyrogenes G-36 (read-out: MIC) it was no more than 0.003 µg/mL; with Pr. Vulgaris O8601 (Proteus vulgaris, read-out: MIC) it was 0.025 µg/mL (≈ 0.0528 µM); in the assay with X. maltophilia IID 1275 (Stenotrophomonas maltophilia, IID1275, X. maltophilia IID 1275, read-out: MIC), 0.1 µg/mL (≈ 0.211 µM); with S. epidermidis 56500 (Staphylococcus epidermidis, read-out: MIC), no more than 0.003 µg/mL; in the assay with E. coli NIHJ (setting [1]) it was no more than 0.003 µg/mL. The minimal inhibitory concentration (MIC) in the assay with S. flexneri 2A 5503 (setting [2]) is no more than 0.003 µg/mL; in the assay on Ps. aeruginosa 32104 (Pseudomonas aeruginosa, 32104, Ps. aeruginosa 32104, read-out: MIC), 0.2 µg/mL (≈ 0.422 µM); in the assay with E. faecalis ATCC 19433 (Enterococcus faecalis, ATCC19433, E. faecalis ATCC 19433, read-out: MIC) it was 0.025 µg/mL (≈ 0.0528 µM); in the assay on Ps. aeruginosa 32121 (Pseudomonas aeruginosa, 32121, Ps. aeruginosa 32121, read-out: MIC) it was 0.05 µg/mL (≈ 0.106 µM); in the assay with Str. pneumoniae J24 (Streptococcus pneumoniae, J24, Str. pneumoniae J24, read-out: MIC), no more than 0.003 µg/mL; with Ser. marcescens 10100 (Serratia marcescens, 10100, Ser. marcescens 10100, read-out: MIC), 0.1 µg/mL (≈ 0.211 µM). Besides, the MIC with S. aureus 870307 (Staphylococcus aureus, 870307, S. aureus 870307, read-out: MIC) turned out to be 0.025 µg/mL (≈ 0.0528 µM); in the assay with K. pneumoniae TYPE 1 (Klebsiella pneumoniae, TYPE1, K. pneumoniae TYPE 1, read-out: MIC), 0.025 µg/mL (≈ 0.0528 µM).
Regarding `Nc1c(F)c(N2CC[C@@H](C(N)c3ccccn3)C2)c(F)c2c1c(=O)c(C(=O)O)cn2[C@@H]1C[C@@H]1F` (some centres unmarked) [Example 16], the MIC entry in the assay on S. aureus FDA 209P is “≦0.003 μg/ml”; against Str. pyrogenes G-36, “≦0.003 μg/ml”; with Pr. Vulgaris O8601, 0.025 µg/mL (≈ 0.0528 µM); against X. maltophilia IID 1275 (X. maltophilia IID 1275), 0.1 µg/mL (≈ 0.211 µM); in the assay on S. epidermidis 56500, “≦0.003 μg/ml”; against E. coli NIHJ, “≦0.003 μg/ml”. Further, the MIC result with S. flexneri 2A 5503 (S. flexneri 2A 5503) was “≦0.003 μg/ml”; against Ps. aeruginosa 32104 (Ps. aeruginosa 32104), 0.2 µg/mL (≈ 0.422 µM); in the assay with E. faecalis ATCC 19433 (E. faecalis ATCC 19433) it was 0.013 µg/mL (≈ 0.0275 µM); with Ps. aeruginosa 32121 (Ps. aeruginosa 32121), 0.05 µg/mL (≈ 0.106 µM); in the assay on Str. pneumoniae J24 (Str. pneumoniae J24) it was “≦0.003 μg/ml”; against Ser. marcescens 10100 (Ser. marcescens 10100), 0.1 µg/mL (≈ 0.211 µM). Also, the minimum inhibitory concentration (MIC) was 0.006 µg/mL (≈ 0.0127 µM) in the assay with S. aureus 870307 (S. aureus 870307) and 0.025 µg/mL (≈ 0.0528 µM) in the assay on K. pneumoniae TYPE 1 (K. pneumoniae TYPE 1).
`Nc1c(F)c(N2CC[C@@H](C(N)c3ccco3)C2)c(F)c2c1c(=O)c(C(=O)O)cn2[C@@H]1C[C@@H]1F` (stereo partly drawn) [Example 12, 5-Amino-7-{3-(R)-[1-amino-1-(2-furyl)methyl]-1-pyrrolidinyl}-6,8-difluoro-1-[2-(S)-fluoro-1-(R)-cyclopropyl]-1,4-dihydro-4-oxoquinoline-3-carboxylic acid]: the MIC result was “≦0.003 μg/ml” in the assay with S. aureus FDA 209P; “≦0.003 μg/ml” against Str. pyrogenes G-36; 0.013 µg/mL (≈ 0.0281 µM) in the assay on Pr. Vulgaris O8601; 0.05 µg/mL (≈ 0.108 µM) against X. maltophilia IID 1275 (X. maltophilia IID 1275); “≦0.003 μg/ml” in the assay on S. epidermidis 56500; no more than 0.003 µg/mL in the assay on E. coli NIHJ (setting [1]). Further, the MIC in the assay with S. flexneri 2A 5503 (setting [2]) is no more than 0.003 µg/mL; against Ps. aeruginosa 32104 (Ps. aeruginosa 32104), 0.1 µg/mL (≈ 0.216 µM); against E. faecalis ATCC 19433 (E. faecalis ATCC 19433) it was 0.006 µg/mL (≈ 0.013 µM); in the assay with Ps. aeruginosa 32121 (Ps. aeruginosa 32121), 0.05 µg/mL (≈ 0.108 µM); in the assay with Str. pneumoniae J24 (Str. pneumoniae J24), “≦0.003 μg/ml”; in the assay on Ser. marcescens 10100 (Ser. marcescens 10100) it was 0.025 µg/mL (≈ 0.0541 µM). Besides, the minimum inhibitory concentration (MIC) result is “≦0.003 μg/ml” with S. aureus 870307 (S. aureus 870307) and 0.025 µg/mL (≈ 0.0541 µM) in the assay with K. pneumoniae TYPE 1 (K. pneumoniae TYPE 1).
